In PubChem BioAssay AID2060483 (Molecular Pharmacology Branch, DTP, NCI, 2025):

System: K24384-001-R-PDC complex spheroids, viability
Assay: Anticancer human tumor K24384-001-R-PDC patient-derived pancreatic adenocarcinoma cell line growth inhibition [GQUAD]
Settings: for IC50: curve of first compound; for viability, T/C: stronger effect = lower value
From the text: DNA G-quadruplex Stabilizer Agents in Combinations in Complex Spheroids
A high-throughput screen of multi-cell type tumor spheroids was designed to identify active combinations of DNA G-quadruplex stabilizer agents and targeted small molecules. Complex spheroids include a stromal component modeled by human endothelial cells (HUVEC) and fibroblasts modeled by human mesenchymal stem cells (MSCs). The concentration ranges selected for each drug and investigational agent were based upon clinically achievable concentrations if the clinical Cmax of the agent was known.
Compounds. The drugs and investigational agents: pidnarulex (CX-5461; NSC782164), APTO-253 (NSC789042), BRACO-19 (NSC847499), peposertib (NSC802822), ceralasertib (NSC780249), elimusertib (NSC800525), camonsertib (NSC841442), AZD-1390 (NSC803789), olaparib (NSC753686), talazoparib (NSC767125), ART-558 (NSC835418), sotorasib (NSC818433), MRTX-1133 (NSC836407), SN-38 (NSC673596), topotecan (NSC609699), etoposide (NSC141540), doxorubicin (NSC123127), gemcitabine (NSC613327), 5-fluorouracil (NSC19893), paclitaxel (NSC125973), vemurafenib (NSC761431), panobinostat (NSC761190), R-306465 (JNJ-16241199; NSC773264), adavosertib (NSC754352), TP-3654 (NSC805149), carboplatin (NSC241240), KSQ-4279 (NSC840948), and staurosporine (NSC755774) were obtained from the National Cancer Institute (NCI) Developmental Therapeutics Program Chemical Repository (34). The FDA-approved anticancer drug set is available from the NCI Developmental Therapeutics Program. […] The stock solutions were prepared in dimethyl sulfoxide (DMSO, Sigma-Aldrich, St. Louis, MO, cat. D2650) at 800-fold the tested concentration and stored at -70 degrees C prior to their use. All drugs and investigational agents were tested over a range starting from a high concentration at or near the clinical Cmax and decreasing in half-log increments. If the clinical Cmax for an agent had not been determined, the highest concentration tested was 10 microM.
2.3 Cell Culture. All cells were maintained in an incubator at 37 degrees C and 5% CO2 with 95% humidity. The PDC lines were cultured according to standard operating procedures established by the NCI PDMR. All PDCs were thawed and cultured in Matrigel-coated flasks prepared with a working solution of 1X Ham's F-12 nutrient mix, without supplementation (Invitrogen, cat. 11765054), 100 U/mL penicillin-streptomycin (Invitrogen, cat. 15140122), and 2.5% Matrigel (Corning Inc., cat. 354248) for the first three passages. The 857933-349-R-J2-PDC line was cultured in 6C/Colon 1B media, which includes advanced DMEM/F-12 (Thermo Fisher Scientific, cat. 12634028), 10 mM HEPES (Thermo Fisher Scientific, cat. 15630080), 1X GlutaMAX supplement (Thermo Fisher Scientific, cat. 35050061), 0.1 mg/mL primocin (InvivoGen, cat. ant-pm-2), 10% defined fetal bovine serum, heat inactivated (HyClone Laboratories Inc., cat. SH30070.03HI), 50% L-WRN conditioned media (ATCC, cat. CRL-3276), 1.25 mM N-Acetyl-L-cysteine (Sigma-Aldrich, cat. A9165), 10 mM nicotinamide (Sigma-Aldrich, cat. N0636), 1X B-27 supplement (Thermo Fisher Scientific, cat. 17504044), 1X N-2 supplement (Thermo Fisher Scientific, cat. 17502048), 10 microM Y-27632 dihydrochloride (Tocris Bioscience, cat. 1254), and 50 ng/mL human EGF recombinant protein (Thermo Fisher Scientific, cat. PHG0311). The 485176-168-R4-J1-PDC line was cultured in Panc media, which includes all 6C/Colon 1B media components plus 100 ng/mL human FGF-10 (Thermo Fisher Scientific, cat. 100-26), 500 nM SB-431542 (Selleckchem, cat. S1067), and gastrin (Tocris, cat. 3006).
[…]
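Further: spheroids exposed to compounds for seven days.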

O=c1[nH]cc(F)c(=O)[nH]1 + CN(C)c1ccc(Nc2c3ccc(NC(=O)CCN4CCCC4)cc3nc3cc(NC(=O)CCN4CCCC4)ccc23)cc1
IC50 (second compound 0.0316 µM): 2200 nM | IC50 (second compound 0.1 µM): 1570 nM | IC50 (second compound 0.316 µM): 1650 nM | IC50 (second compound 1 µM): 1260 nM | IC50 (second compound 3.16 µM): 1360 nM | IC50 (second compound 10 µM): 1750 nM | viability, T/C (second compound 0.0316 µM, first compound 0.0316 µM): 111% | viability, T/C (second compound 0.0316 µM, first compound 0.1 µM): 71.7% | viability, T/C (second compound 0.0316 µM, first compound 0.316 µM): 88.4% | viability, T/C (second compound 0.0316 µM, first compound 1 µM): 52.4% | viability, T/C (second compound 0.0316 µM, first compound 3.16 µM): 42.5% | viability, T/C (second compound 0.0316 µM, first compound 10 µM): 40.3% | viability, T/C (second compound 0.1 µM, first compound 0.0316 µM): 98.7% | viability, T/C (second compound 0.1 µM, first compound 0.1 µM): 100% | viability, T/C (second compound 0.1 µM, first compound 0.316 µM): 66.5% | viability, T/C (second compound 0.1 µM, first compound 1 µM): 59.2% | viability, T/C (second compound 0.1 µM, first compound 3.16 µM): 42.7% | viability, T/C (second compound 0.1 µM, first compound 10 µM): 33.3% | viability, T/C (second compound 0.316 µM, first compound 0.0316 µM): 94.8% | viability, T/C (second compound 0.316 µM, first compound 0.1 µM): 94.8% | viability, T/C (second compound 0.316 µM, first compound 0.316 µM): 72.6% | viability, T/C (second compound 0.316 µM, first compound 1 µM): 59.1% | viability, T/C (second compound 0.316 µM, first compound 3.16 µM): 40.4% | viability, T/C (second compound 0.316 µM, first compound 10 µM): 32.5% | viability, T/C (second compound 1 µM, first compound 0.0316 µM): 90.2% | viability, T/C (second compound 1 µM, first compound 0.1 µM): 88.8% | viability, T/C (second compound 1 µM, first compound 0.316 µM): 72.4% | viability, T/C (second compound 1 µM, first compound 1 µM): 57.5% | viability, T/C (second compound 1 µM, first compound 3.16 µM): 31.3% | viability, T/C (second compound 1 µM, first compound 10 µM): 32.1% | viability, T/C (second compound 3.16 µM, first compound 0.0316 µM): 83.9% | viability, T/C (second compound 3.16 µM, first compound 0.1 µM): 89.5% | viability, T/C (second compound 3.16 µM, first compound 0.316 µM): 65.9% | viability, T/C (second compound 3.16 µM, first compound 1 µM): 57.3% | viability, T/C (second compound 3.16 µM, first compound 3.16 µM): 37.6% | viability, T/C (second compound 3.16 µM, first compound 10 µM): 31.5% | viability, T/C (second compound 10 µM, first compound 0.0316 µM): 83.4% | viability, T/C (second compound 10 µM, first compound 0.1 µM): 85.2% | viability, T/C (second compound 10 µM, first compound 0.316 µM): 62.2% | viability, T/C (second compound 10 µM, first compound 1 µM): 69% | viability, T/C (second compound 10 µM, first compound 3.16 µM): 34.1% | viability, T/C (second compound 10 µM, first compound 10 µM): 31.7%
